The values that follow come from ChEMBL document CHEMBL3864124, “Tetrodecamycin: An unusual and interesting tetronate antibiotic” (2016).

≈ marks a conversion by molar mass, not a printed value.

Common to all, as to assay type: functional
The test system of assay [1] is Staphylococcus aureus. The experiment in a line: Antibacterial activity against methicillin resistant Staphylococcus aureus […] after 18 hrs by serial agar dilution method.
Assay [2] is described as follows: Antibacterial activity against Photobacterium damselae subsp. piscicida after 18 hrs by serial agar dilution method.
Assay [3] relates to Staphylococcus aureus. The experiment in a line: Antibacterial activity against Staphylococcus aureus after 18 hrs by serial agar dilution method.
The subject of a further assay is Bacillus subtilis. Nature of the assay: Antibacterial activity against Bacillus subtilis after 18 hrs by serial agar dilution method.
A further assay deals with Micrococcus luteus. The experiment in a line: Antibacterial activity against Micrococcus luteus after 18 hrs by serial agar dilution method.
In assay [4] the test system is Staphylococcus aureus. Nature of the assay: Antibacterial activity against […] Staphylococcus aureus ATCC 25923 after 18 hrs by serial agar dilution method. The note with it: ATCC 25923, 18 h.

On to `C[C@@H]1[C@@H]2OC3=C(C(=O)OC3CSCCO)C(=O)[C@@]1(C)[C@@H]1CCCC[C@@]1(O)[C@@H]2O` (some centres undefined), for which the MIC in the assay with Staphylococcus aureus [1] stood at 25 µg/mL; in assay [2], 6.25 µg/mL (≈ 15.2 µM).
For the molecule `C=C1OC(=O)C2=C1O[C@@H]1[C@@H](O)[C@]3(O)CCCC[C@H]3[C@](C)(C2=O)[C@@H]1C`, the MIC was in the range of 18.7 to 37.4 µM in the assay with Staphylococcus aureus [1]; 18.7 to 37.4 µM (≈ 6.25 to 12.5 µg/mL) against Staphylococcus aureus [3]; 18.7 to 37.4 µM (≈ 6.25 to 12.5 µg/mL) against Bacillus subtilis; 18.7 to 37.4 µM (≈ 6.25 to 12.5 µg/mL) in the assay on Micrococcus luteus; 1.56 to 18.7 µg/mL (≈ 4.67 to 55.9 µM) in assay [2].
Take `C=C1OC(=O)C2=C1O[C@H]1C[C@](C)(CC(O)C1OC(=O)c1ccc3ccccc3c1)C2=O` (some centres undefined): in the assay on Staphylococcus aureus [4], inhibition of growth (MIC) required 8 µg/mL (≈ 19 µM).
Still for that read-out and setting: to `C=C1OC(=O)C2=C1O[C@@H]1C=CC[C@@](C)(C1)C2=O` belongs 4 µg/mL (≈ 17.2 µM).
In the case of `CC(=O)NCCCSCC1OC(=O)C2=C1O[C@@H]1[C@@H](O)[C@]3(O)CCCC[C@H]3[C@](C)(C2=O)[C@@H]1C` (some centres undefined), the results for the MIC (against Staphylococcus aureus [1]; in assay [2]) were 12.5 µg/mL and 6.25 µg/mL (≈ 13.4 µM), respectively.
Turning to `C[C@@H]1[C@@H]2OC3=C(C(=O)OC3(Br)CBr)C(=O)[C@@]1(C)[C@@H]1CCCC[C@@]1(O)[C@@H]2O` (some centres undefined), the MIC against Staphylococcus aureus [1] was more than 100 µg/mL; in assay [2], 12.5 µg/mL (≈ 25.3 µM).
As for `C=C1OC(=O)C2=C1O[C@H]1C[C@](C)(CC(O)C1O)C2=O` (some centres undefined), the MIC in the assay on Staphylococcus aureus [4] is more than 128 µg/mL.
Turning to `C=C1OC(=O)C2=C1O[C@@H]1[C@@H](OC(=O)c3ccc4ccccc4c3)[C@]3(O)CCCC[C@H]3[C@](C)(C2=O)[C@@H]1C`, the figures for the MIC (against Staphylococcus aureus [1]; in assay [2]) were 1.61 µM and more than 100 µg/mL, respectively.
In the assay with Staphylococcus aureus [4], `C=C1OC(=O)C2=C1O[C@H]1C[C@](C)(CC(OC(=O)c3ccc4ccccc4c3)C1O)C2=O` (some centres undefined) returned an MIC of 128 µg/mL (≈ 304 µM).
For `CC1OC(=O)C2=C1O[C@@H]1[C@@H](O)[C@]3(O)CCCC[C@H]3[C@](C)(C2=O)[C@@H]1C` (some centres undefined), the MIC is more than 100 µg/mL in the assay with Staphylococcus aureus [1] and 50 µg/mL (≈ 149 µM) in assay [2].
